Source: patent US20250382549A1, “MULTIFUNCTIONAL N-OXIDE HYDROTROPES, CLEANING FORMULATIONS CONTAINING THEM AND USE THEREOF” (NOURYON CHEMICALS INTERNATIONAL B.V., priority 2022, published 2025)

Assay: Degreasing effect on a soiled white painted metal plate (non-mechanical cleaning)
Details: 1:40 dilution in water, poured over painted metal plate soiled with train engine grease, rinsed with tap water
Experimental: The degreasing effect of the test formulations was assessed on a white painted metal plate soiled uniformly with a tough-to-clean greasy soil collected from a train engine. The cleaning formulation (1:40 dilution in water) was applied simply by pouring it over the surface (non-mechanical cleaning). After a short time interval, the whole plate was rinsed with tap water and cleaning performance was assessed quantitatively. The results are tabulated below and depicted in FIG. 1A (for the respective cleaning formulations A, B, and C containing no NaOH) and FIG. 1B. (for the respective cleaning formulations D, E, and F containing 2% NaOH).

## C12/14 alkyl methylamine ethoxylate N-Oxide
  Cleaning Performance: performs as well as the comparison hydrotrope
